Positions of bridges follow the written chain, without caps; N, C: chain ends. No end group written: not given here.
System: CD-1 mice
Assay: Acute toxicity, intravenous
Assay type: in vivo, mouse
Details: 1 mg/kg i.v., single; 24 h observation
Method: The animal studies were performed under the European Commission’s legislation (Directives 86/609/EEC, 2010/63/EU), the National Standard of the Russian Federation “Good Laboratory Practice” (GOST P 53434-2009, Moscow, Russia), and Committee on Ethics of Laboratory Animal Handling № 05/21, 20 September 2021 and 08/21, 30 December 2021 protocols (PIBOC FEB RAS). Adult female CD-1 mice weighing 25 ± 2 g were subjected to a 12 h light–dark cycle at room temperature and with ad libitum access to food and water. There were seven or eight individuals in each group.
Lyophilized peptides were dissolved in 0.9% NaCl solution (saline) and administered once intravenously at doses of 1 mg/kg; the control group received saline (10 mL/kg or 250 µL/mouse). Then, alterations in physiological parameters, such as motility, behavioral responses and physical activity, were registered in each of the animal groups over 24 h.

GTPCDCYGYTGVYWFMLSRCPSGYGYNLSCHYFMGICCVKR (disulfide 4-37, 6-30, 20-38 (inferred)) [Hmg 1b-4]
toxicity symptoms: did not cause the symptoms of neurotoxicity or obvious changes in the behavior of animals
